Measurements reported in patent US20230227492A1 (priority 2020, published 2023).
Read-outs that look alike come from different tables or passages of the source.

Experiments:
[1] = target: T1, human full-length androgen receptor (Homo sapiens, UniProt P10275); test: AR Transactivation Assay (MMTV-luciferase, HEC-1-B cells); type: cell-based
T1 sequence (P10275 1-920): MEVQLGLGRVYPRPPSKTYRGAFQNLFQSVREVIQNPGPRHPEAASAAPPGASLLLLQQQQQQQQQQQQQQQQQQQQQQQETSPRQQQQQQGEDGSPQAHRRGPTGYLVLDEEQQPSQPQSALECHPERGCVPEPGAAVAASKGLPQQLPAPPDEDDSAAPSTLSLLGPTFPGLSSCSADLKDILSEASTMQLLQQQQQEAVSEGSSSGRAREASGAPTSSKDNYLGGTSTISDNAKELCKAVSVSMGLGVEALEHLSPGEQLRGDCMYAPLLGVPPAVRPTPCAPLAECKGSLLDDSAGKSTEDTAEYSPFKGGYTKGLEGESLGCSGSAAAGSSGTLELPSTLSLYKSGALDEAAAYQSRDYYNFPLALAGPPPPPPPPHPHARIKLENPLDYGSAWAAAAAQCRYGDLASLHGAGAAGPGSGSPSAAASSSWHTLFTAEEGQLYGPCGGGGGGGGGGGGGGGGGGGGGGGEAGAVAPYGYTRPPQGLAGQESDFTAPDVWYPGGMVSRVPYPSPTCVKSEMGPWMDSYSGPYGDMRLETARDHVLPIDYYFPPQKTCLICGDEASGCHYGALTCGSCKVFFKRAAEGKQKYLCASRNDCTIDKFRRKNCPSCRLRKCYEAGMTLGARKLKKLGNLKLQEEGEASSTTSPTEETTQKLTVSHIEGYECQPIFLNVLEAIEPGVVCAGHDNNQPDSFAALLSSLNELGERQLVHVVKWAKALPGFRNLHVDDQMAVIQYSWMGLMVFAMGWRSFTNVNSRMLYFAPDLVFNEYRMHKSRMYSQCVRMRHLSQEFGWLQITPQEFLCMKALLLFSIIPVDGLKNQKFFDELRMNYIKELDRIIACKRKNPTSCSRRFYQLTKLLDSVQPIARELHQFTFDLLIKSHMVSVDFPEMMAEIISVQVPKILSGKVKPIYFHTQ

[2] = target: T2, human PR ligand-binding domain tagged with GST [PR-LBD (GST)] (Homo sapiens, UniProt P06401); test: PR fluorescence polarization (FP) binding assay; settings: Fluormone PL Green
T2 construct: purchased Life Technologies (Carlsbad, Calif.)
T2 sequence (P06401 679-913 limits assumed): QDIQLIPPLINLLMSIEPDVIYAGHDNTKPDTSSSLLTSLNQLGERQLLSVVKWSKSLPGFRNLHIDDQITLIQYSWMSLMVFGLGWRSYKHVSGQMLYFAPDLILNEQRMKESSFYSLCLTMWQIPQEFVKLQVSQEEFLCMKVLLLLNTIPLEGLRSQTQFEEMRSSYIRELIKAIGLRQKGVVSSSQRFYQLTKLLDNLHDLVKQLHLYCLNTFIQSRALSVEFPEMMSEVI
Method: (§1) Receptor Binding Assay Information—In certain of the following examples, hormone receptor binding assays were used to determine the receptor binding activities of monomeric compound embodiments to androgen (AR), progesterone (PR), estrogen alpha (ERα) or glucocorticoid (GR) receptors. For AR, PR or ERα, the respective receptors are added to novel, tight-binding, selective ligands tagged with a fluorescent molecule, to form a receptor-ligand complex with a high polarization value. This complex is then added to individual monomeric compound embodiments that are contained in well plates. If the monomeric compound binds to the respective receptors, it displaces the fluorescent ligand from the complex, resulting in a low polarization value. In such embodiments, the monomeric compound is characterized as a competitor. […] In such embodiments, the monomeric compound is characterized as a noncompetitor. The shift in polarization value in the presence of the monomeric compound is used to determine the relative affinity of monomeric compound for the receptor.
For the androgen, progesterone, and estrogen receptor binding assays described herein, the preparation of reagents and test procedures is performed according to the manufacturer's instructions (Life Technologies, Carlsbad, Calif.). The plates are covered to protect the reagents from light and incubated at 20-25° C. for 4-8 hrs. The fluorescence polarization of the samples is measured with 485 nm excitation and 530 nm emission interference filters.
In this example, PR binding activity was assessed using the PR fluorescence polarization (FP) assay, which provides a sensitive and efficient method for high-throughput screening of potential PR ligands. The kit uses human PR ligand-binding domain tagged with GST [PR-LBD (GST)], and a tight-binding, selective fluorescent progesterone ligand (Fluormone™ PL Green) in a homogenous mix-and-read assay format. Progesterone receptor [PR-LBD (GST)] was added to a fluorescent progesterone ligand (Fluormone™ PL Green) to form a PR-LBD (GST)/Fluormone™ PL Green complex resulting in a high polarization value. This complex was then added to individual compound embodiments in 96-well plates. Competitors displaced the fluorescent Fluormone™ PL Green ligand from the PR-LBD (GST)/Fluormone™ PL Green complex, causing the fluorescent ligand to tumble rapidly during its fluorescence lifetime, resulting in a low polarization value. […] The shift in polarization value in the presence of compound embodiments was used to determine relative affinity of compound embodiments for PR-LBD (GST). The fluorescence polarization of the samples was measured with 485 nm excitation and 530 nm emission interference filters. Results for monomeric compound embodiments wherein the R^2 groups is not present (such as to test compound activity after R^2 cleavage) are provided in Table 4.

[3] = target: T3, full-length, untagged, human estrogen receptors (ERα) (Homo sapiens, UniProt P03372); test: ERα fluorescence polarization (FP) binding assay
T3 construct: insect cell-expressed, full-length, untagged, human estrogen receptors; purchased Life Technologies (Carlsbad, Calif.); host or cells: insect cells
Method: as §1
(§2) For the androgen, progesterone, and estrogen receptor binding assays described herein, the preparation of reagents and test procedures is performed according to the manufacturer's instructions (Life Technologies, Carlsbad, Calif.). The plates are covered to protect the reagents from light and incubated at 20-25° C. for 4-8 hrs.
For ERα data, the ERα fluorescence polarization (FP) assay was used, which provides a sensitive and efficient method for high-throughput screening of potential ER ligands. The kit uses insect cell-expressed, full-length, untagged, human estrogen receptors and a tight-binding, fluorescent estrogen ligand (Fluormone™ ES2) in a homogenous mix-and-read assay format. ERα was added to a fluorescent estrogen ligand to form an ERα/Fluormone™ ES2 complex. This complex was then added to individual compound embodiments contained in 96-well plates. […] The change in polarization value in the presence of a compound embodiment was used to determine relative affinity of a compound embodiment for ERα.

[4] = target: T4, rat AR ligand-binding domain tagged with His and GST [AR-LBD (His-GST)] (Rattus norvegicus, UniProt P15207); test: AR fluorescence polarization (FP) binding assay; settings: Fluormone AL Green
T4 construct: purchased Life Technologies (Carlsbad, Calif.)
T4 sequence (P15207 651-882 limits assumed): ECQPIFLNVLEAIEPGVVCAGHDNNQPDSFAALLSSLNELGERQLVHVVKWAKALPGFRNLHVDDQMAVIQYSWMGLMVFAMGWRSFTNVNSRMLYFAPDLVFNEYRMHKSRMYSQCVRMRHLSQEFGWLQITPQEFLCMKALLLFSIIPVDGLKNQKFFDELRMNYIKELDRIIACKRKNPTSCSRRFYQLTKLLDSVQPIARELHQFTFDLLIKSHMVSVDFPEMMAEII
Method: as §1, §2
In this example, AR binding activity and ER binding activity of certain reference compounds and monomeric compound embodiments wherein the R^2 group is not present was assessed (such as to test compound activity after R^2 cleavage). The AR fluorescence polarization (FP) assay was used and provides a sensitive and efficient method for high-throughput screening of potential AR ligands. The kit uses rat AR ligand-binding domain tagged with His and GST [AR-LBD (His-GST)], and a tight-binding, selective fluorescent androgen ligand (Fluormone™ AL Green) in a homogenous mix-and-read assay format. The androgen receptor [AR-LBD (His-GST)] was added to a fluorescent androgen ligand (Fluormone™ AL Green) to form an AR-LBD (His-GST)/Fluormone™ AL Green complex resulting in a high polarization value. This complex was then added to individual compound embodiments in 96-well plates. Competitors displaced the fluorescent Fluormone™ AL Green ligand from the AR-LBD (His-GST)/Fluormone™ AL Green complex, causing the fluorescent ligand to tumble rapidly during its fluorescence lifetime, resulting in a low polarization value. […] The shift in polarization value in the presence of compound embodiments used to determine relative affinity of compound embodiments for AR-LBD (His-GST).

[5] = human, plasma
castrated weanling rats = settings: rat, in vivo
[6] = test system: castrated Sprague-Dawley male rats; test: Hershberger assay, ventral prostate weights (7α-methyl testosterone); type: in vivo, rat
[7] = target: T5, recombinant human aromatase (Homo sapiens, UniProt P11511); test: Aromatization by recombinant human aromatase (CYP19+P450 reductase Supersomes); settings: 10 μM, 37° C.
T5 sequence (P11511 1-503): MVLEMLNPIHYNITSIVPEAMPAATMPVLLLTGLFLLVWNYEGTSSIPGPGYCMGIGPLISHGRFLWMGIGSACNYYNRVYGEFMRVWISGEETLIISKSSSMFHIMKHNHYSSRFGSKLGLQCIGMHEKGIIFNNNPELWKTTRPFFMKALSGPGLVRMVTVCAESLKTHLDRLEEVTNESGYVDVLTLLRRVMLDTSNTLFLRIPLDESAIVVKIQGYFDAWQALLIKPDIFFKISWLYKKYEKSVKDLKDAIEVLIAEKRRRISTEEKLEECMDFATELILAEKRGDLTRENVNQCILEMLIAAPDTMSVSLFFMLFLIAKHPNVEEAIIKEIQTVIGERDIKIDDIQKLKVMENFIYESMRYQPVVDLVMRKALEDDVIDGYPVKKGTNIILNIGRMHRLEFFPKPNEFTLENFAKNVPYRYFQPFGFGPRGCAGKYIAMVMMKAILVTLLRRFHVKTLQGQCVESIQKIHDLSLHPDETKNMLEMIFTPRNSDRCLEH

[8] = fluorescence polarization, Fluormone ES2, read-out: IC50 (nM) ERα

T3 sequence (P03372 whole entry): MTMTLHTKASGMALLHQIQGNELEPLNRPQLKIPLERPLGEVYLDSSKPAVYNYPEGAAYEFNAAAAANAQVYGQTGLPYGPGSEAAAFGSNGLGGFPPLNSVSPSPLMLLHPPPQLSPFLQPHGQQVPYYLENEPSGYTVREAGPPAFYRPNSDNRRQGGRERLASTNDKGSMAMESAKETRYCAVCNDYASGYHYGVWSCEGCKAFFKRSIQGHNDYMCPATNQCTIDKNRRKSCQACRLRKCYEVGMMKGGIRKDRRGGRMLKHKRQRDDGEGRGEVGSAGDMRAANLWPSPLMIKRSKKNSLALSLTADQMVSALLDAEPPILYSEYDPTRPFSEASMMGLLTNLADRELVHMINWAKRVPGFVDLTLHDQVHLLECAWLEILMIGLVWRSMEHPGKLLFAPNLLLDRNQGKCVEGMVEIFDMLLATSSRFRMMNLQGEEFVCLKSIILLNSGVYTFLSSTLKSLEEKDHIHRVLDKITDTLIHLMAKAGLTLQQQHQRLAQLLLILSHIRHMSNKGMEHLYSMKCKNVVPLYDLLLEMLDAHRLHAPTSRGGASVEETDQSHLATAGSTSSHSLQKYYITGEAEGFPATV

SMILES	IC50 ([2]; read-out: IC50 (nM) PR binding) [nM]	IC50 [3, 8] [nM]	IC50 (nM) AR [4] [nM]	% remaining at 15 min [7] [%]	% remaining at 30 min [7] [%]	% remaining at 60 min [7] [%]	other results
CC1Cc2cc(O)ccc2C2CCC3(C)C(O)CCC3C12 (stereo not drawn) [CDB 4915, 7α-methyl estradiol]	502	10.3	20.1				EC50 [1]: 39 nM
CC1CC2(C)C(O)CCC2C2C(C)Cc3cc(O)ccc3C12 (stereo not drawn) [CDB 4916, 7α, 11β-dimethyl estradiol]	165	13.8	17.8				EC50 [1]: 3.68 nM
CC1CC2(C)C(O)CCC2C2CCc3cc(O)ccc3C12 (stereo not drawn) [CDB 4917, 11β-methyl estradiol]	120	12	12.8				
C[C@@H]1CC2=CC(=O)CC[C@@H]2[C@H]2CC[C@]3(C)[C@@H](O)CC[C@H]3[C@@H]21 [CDB-902, 7-α-methylnortestosterone, reference compound]							Parent molecule % remaining after 24 hours at 37° C. [5]: 100≤ %
C[C@@H]1CC2=CC(=O)CCC2C2C1C1CC[C@H](OC(=O)CCCCCCCCCCC(=O)O[C@H]3CCC4C5C(C6CCC(=O)C=C6C[C@H]5C)[C@@H](C)C[C@@]43C)[C@@]1(C)C[C@@H]2C (stereo partly drawn) [CDB-4867]							AUC (Levator ani muscle) (castrated weanling rats): 5059 mg*week; AUC (Ventral Prostate) (castrated weanling rats): 529.5 mg*week; duration of levator ani muscle weight increase (anabolic effects) (castrated weanling rats): sustained until Day 99 (Week 14); duration of ventral prostate weight increase (androgenic effects) (castrated weanling rats): sustained until Day 99 (Week 14); ventral prostate gland weights relative to vehicle (castrated weanling rats): increased; Parent molecule % remaining after 24 hours at 37° C. ([5]; male): 100≤ %
CC1CC2(C)C(O)CCC2C2CCC3=CC(=O)CCC3=C12 (stereo not drawn) [CDB-4890, 11β, 4,9 diene-MNT]	43.5	6680	15.5				
C[C@@H]1CC2=CC(=O)CC[C@]2(C)C2CC[C@@]3(C)C(CC[C@@H]3O)C21 (stereo partly drawn) [CDB-4910, 7α-methyl testosterone]				57.6	20.2	0.1	IC50 ([2]; IC50 (nM) PR binding): 395 nM; IC50 [3]: 7830 nM; Ventral Prostate (weight in gram) ([6]; Conc. in mmole 0.7): 0.076 gram; Ventral Prostate (weight in gram) ([6]; Conc. in mmole 2.8): 0.13 gram; Ventral Prostate (weight in gram) ([6]; Conc. in mmole 11.2): 0.14 gram
C[C@@H]1CC2CC(=O)CC[C@]2(C)C2CC[C@@]3(C)C(CC[C@@H]3O)C21 (stereo partly drawn) [CDB-4922, 7α-methyldihydro testosterone]			57.1	66.8	38.0	10.1	IC50 ([2]; IC50 (nM) PR binding): 1890 nM; IC50 [3]: 26300 nM
C[C@]12CC[C@H]3[C@@H](CCC4=CC(=O)CC[C@@]43C)[C@@H]1CC[C@@H]2O [Testosterone, reference compound]				31.4	0.1	0.1	Ventral Prostate (weight in gram) ([6]; Conc. in mmole 6.9): 0.12 gram
